Test results: patent US5756511A, “Method for treating symptoms of a neurodegenerative condition” (Cell Therapeutics, Inc., priority 1995, dated 1998)

Legend:
[1] = system: endogenous APP; assay: Western Blot of endogenous APP in culture supernatants of SH-SY5Y cells; format: cell-based; details: SH-SY5Y incubated 18 hours with 5 nM human TNFA and increasing concentrations of compound
Method: This Example illustrates the effect of representative compounds nos. 2576, 2583, 3501, 3577, 4522, 4533, 4535 and 4537 used in the inventive method on endogenous APP expression.
Cell cultures were prepared as in Example 1 using SH-SY5Y human neuroblastoma cells. Culture supernatants from SH-SY5Y cells incubated for 18 hours with 5 nM human TNFA and increasing concentrations of representative compounds identified above were separated on a 4-20% SDS-polyacrylamide gel and transferred to nitrocellulose. The nitrocellulose filter was probed with anti-APP antibody (Boehringer Mannheim, Indpls, Ind.), and the results visualized by Enhanced Chemiluminecence (Amersham Life Sciences, Arlington Heights, Ill.).

[2] = system: human amyloid precursor protein (APP) promoter; assay: APP promoter-alkaline phosphatase (pHAPPro. 1) reporter assay in transfected SH-SY5Y cells stimulated with hTNFα; format: cell-based; details: SH-SY5Y transfected with pHAPPro. 1; 1 nM hTNFα; increasing concentrations of agent
Method: This example is an in vitro assay confirming activity of an ability of representative agents to inhibit APP synthesis by effecting the level of alkaline phosphatase in the culture medium of human neuroblastoma cells, SH-SY5Y (Beidler et al., 1978), expression of which is controlled by a human amyloid precursor protein (APP) promoter.
The SH-SY5Y were transfected with the promoter-alkaline phosphatase reporter gene construct pHAPPro. The transfected cells were prepared as follows:
A DNA fragment comprising nucleotide pairs -660 to +20 of the human APP promoter (Salbaum et al. 1988) was isolate by polymerase chain reaction using human placental DNA as a template. Xba I and ASP718 restriction endonuclease recognition sites were incorporated during amplification to facilitate subcloning upstream of an alkaline phosphatase reporter gene, forming the plasmid pHAPPro. 1, represented in FIG. 1. SH-SY5Y were subsequently transfected with pHAPPro. 1.
Comparing results obtained in this assay to a standard based on alkaline phosphatase expression controlled by a human phosphoglycerol kinase (PGK) promoter, relative to any cytotoxic effects an agent confirms therapeutic efficacy in the inventive method.
In all assays, controls were done in triplicate. Control assays specifically included assays using: 1) unstimulated cells; 2) cells stimulated with 1 nM hTNFαalone; 3) cells stimulated with 1 nM hTNFα and increasing concentrations of agent, as tested for all representative agents; 4) cells stimulated with 1 nM hTNFα and increasing concentrations of vehicle (100% ethanol), corresponding to vehicle concentrations in test agent preparations.
Subsequent validation of all results included repeating tests with an expanded dose range. Results obtained were compared to an agent's inhibition of constituitive promoter for the phosphoglycerol kinase gene and endogenous amyloid precursor protein expression in neuroblastoma cells
SH-SY5Y cells, prepared above, were plated into wells of a 96-well dish at a density of 20,000 cells per well in […] AIM V medium (Gibco/BRL, Gaithersburg, Md.: CAT# 21021-019). Dishes were incubated at 5% CO2 and 37° C. for 12 to 24 hours. […]
Culture medium […] from each well was transferred to a corresponding well of a 96-well ELISA dish and […] 1× SEAP (0.5M diethanolamine (pH 9.8); 0.25 mM MgCl2; 0.01 mM ZnSO4; 10 mM L-homoarginine; 1 mM para-nitrophenyphosphate, Berger et al., 1988.), prepared above, was added to each well. The plates were incubated 10 minutes in 5% CO2 and 37° C., after which the kinetic change in absorbance at 405 nm was measured on a BIOTEK plate reader.
All data were imported into plotting software for analysis. Triplicate data points were averaged and standard error (from mean) was calculated using accepted standards. […]

| Structure (SMILES) | inhibition of expression of endogenous APP (FIG. 3) [1] | inhibition of APP expression (FIG. 2) [2] |
| --- | --- | --- |
| COc1cc(CNCC(O)CCCCCCCCCn2c(=O)c3c(ncn3C)n(C)c2=O)cc(OC)c1OC (stereo not drawn) [Compound 3501] | inhibition of APP expression, in a dose-dependent manner | inhibit APP expression in a dose-dependent fashion |
| COc1cc(CNC(=O)CCCCCCCCCCn2c(=O)c3c(ncn3C)n(C)c2=O)cc(OC)c1OC [Compound 3577] | inhibition of APP expression, in a dose-dependent manner | inhibit APP expression in a dose-dependent fashion |
| CCCCCCCCCCNCC(O)CCCCCCCCCn1c(=O)c2c(ncn2C)n(C)c1=O (stereo not drawn) [Compound 2583] | inhibition of APP expression, in a dose-dependent manner |  |
| COc1cc(NC(=O)CCCCCCCCCCn2c(=O)c3c(ncn3C)n(C)c2=O)cc(OC)c1OC [Compound 4535] | inhibition of APP expression, in a dose-dependent manner |  |
| CCCCCCCCNCC(O)CCCCCCCCCn1c(=O)c2c(ncn2C)n(C)c1=O (stereo not drawn) [Compound 2576] | inhibition of APP expression, in a dose-dependent manner |  |
| Cn1cnc2c1c(=O)n(CCCCCCCCCCC(=O)NCc1ccc3c(c1)OCO3)c(=O)n2C [Compound 4533] | inhibition of APP expression, in a dose-dependent manner |  |
| COc1cc(CNC(CO)CCCCCCCCCn2c(=O)c3c(ncn3C)n(C)c2=O)cc(OC)c1OC (stereo not drawn) [Compound 4522] | inhibition of APP expression, in a dose-dependent manner | inhibit APP expression in a dose-dependent fashion |
| CCCCCCCCN(CC(CCCCCCCCCn1c(=O)c2c(ncn2C)n(C)c1=O)OC(C)=O)C(C)=O (stereo not drawn) [Compound 4537] | inhibition of APP expression, in a dose-dependent manner | inhibit APP expression in a dose-dependent fashion |
